{
  "source": "patent US12569495B2",
  "about": "“Inhibitors of porcine reproductive and respiratory syndrome virus” (UNIVERSITY OF CONNECTICUT, priority 2020, dated 2026)",
  "key": {"PRRSV strain VR-2332": {"tested_on": "PRRSV strain VR-2332", "assay": "qRT-PCR for PRRSV RNA in infected PAMs", "format": "cell-based", "method": "(§1) Total RNA was extracted from PAMs infected with PRRSV using RNeasy Mini Kit (Qiagen, Germantown, MD) according to the manufacturer's instruction. RNA concentrations were measured using a Nanodrop spectrophotometer (Thermo Fisher Scientific). GAPDH was used as a housekeeping gene for gene expression normalization. Data were processed with the software associated with ABI 7500.\nFor PRRSV infection of PAM cells, PAMs were seeded one day prior to infection. […] Cells were inoculated with VR-2332, SDSU73, NADC30 or Lelystad PRRSV at MOI=0.1 for 1 h. The 24 h cell medium supernatant was stored at −80° C. until use."}, "type I strain (Lelystad)": {"tested_on": "type I strain (Lelystad)", "assay": "PRRSV titration assay, type I strain", "format": "cell-based", "settings": "15 μM; PAMs; 24 h", "method": "(§2) For PRRSV infection of PAM cells, PAMs were seeded one day prior to infection. Control cells were treated with DMSO and test cells were treated with the selected screening compounds (5-20 μM) for 4 h before inoculation, during the 1 h PRRSV inoculation, and for 24 h after inoculation. Cells were inoculated with VR-2332, SDSU73, NADC30 or Lelystad PRRSV at MOI=0.1 for 1 h. The 24 h cell medium supernatant was stored at −80° C. until use.\n(§3) For PRRSV titration assay, MARC145 cells were seeded in 48-well plates and grew to ˜80% density before inoculation. Viral supernatants were prepared by 10-fold serial dilution, and 100 μl of the dilutions was added per well in six replicates. Inocula were removed from cells after 2 h and replaced with 0.5 mL of DMEM supplemented with 2% FBS, 2 mM glutamine, 0.1 mM MEM non-essential amino acids, 50 U/mL penicillin, and 50 μg/mL streptomycin (Invitrogen). Cells were cultured at 37° C. for 6 days and any cytopathic effects were observed and recorded. The PRRSV titer was calculated using the Reed and Muench method and expressed as median tissue culture infectious dose (TCID50/mL). Reed and Muench, Am. J. Epidemiol. 27(3): 493-497 (1938).\n(§4) The inhibitory effect of B7 was further tested on multiple strains of PRRSV. […]"}, "[1]": {"tested_on": "PRRSV strains VR-2332, SDSU73, NADC30 (Type II), or Lelystad (Type I)", "assay": "qRT-PCR for PRRSV RNA in PAMs infected by different strains", "format": "cell-based", "settings": "15 μM; 4 h pre-treatment, 24 h post", "method": "as §1, §2\nThe inhibitory effect of B7 was further tested on multiple strains of PRRSV. […] This inhibitory effect is further confirmed by viral titration results for the culture media of infected PAMs, with 2.8-3.1 log reduction of viral titers across the 3 Type II PRRSV strains and 2.2 log reduction of viral titer for the type I strain (Lelystad) by 15 μM B7 treatment (FIG. 5D). Thus, compound B7 indeed inhibits the PRRSV infection of PAMs. […]"}, "Rat acute toxicity study": {"assay": "Rat acute toxicity study", "format": "in vivo, Sprague Dawley laboratory male rats", "method": "The study was conducted as: • 1. Eight 10-week Sprague Dawley laboratory male rats (˜260 g each) were randomly selected into two groups (n=4), with group 1 for control and group 2 for B7-treatment. • 2. Day 0, injection of B7 drug. The intramuscular (IM) injection was vehicle for group 1, and 4 mg/kg B7 per rat for group 2, with 0.15 mL of volume per rat, to the left thigh region. The B7 was dissolved in vehicle containing 30% DMSO and 50% propylene glycol (PG), and 20% 20 mM Tris·HCl, pH 8.0. • 3. Days 1-7 observation of rats with daily body weight and temperature measurement and making records of any abnormal behavior. • 4. Day 7 necropsy: Euthanize the rats with CO2, immediately followed by blood sample collection from heart. Conduct postmortem rat gross-anatomic pathology analysis (brain, heart, lung, liver, kidney, spleen). • 5. Conduct clinical pathology analysis (CBC/Chemistry by IDDEX Bioanalytics) for the collected blood samples."}, "[2]": {"tested_on": "3 Type II PRRSV strains (VR-2332, SDSU73, NADC30)", "assay": "PRRSV titration assay, Type II strains", "format": "cell-based", "settings": "15 μM; PAMs; 24 h", "method": "as §2, §3, §4"}, "[3]": {"settings": "rat, IM 4 mg/kg, Day 7 blood, mean n=4"}},
  "note": "Values joined by “and” are separate entries in the source; they are usually repeats but may differ in a detail not shown here. Identical values can stand only once. “Also recorded” adds a separate entry of the source.",
  "data": [
    {"smiles": "Cc1cc(F)ccc1S(=O)(=O)Nc1nc2ccccc2nc1Nc1cccc(S(=O)(=O)N2CCOCC2)c1", "note": "[Compound B7, 4-fluoro-2-methyl-N-[3-(3-morpholin-4-ylsulfonylanilino)quinoxalin-2-yl]benzenesulfonamide]", "values": [
      {"measurement": "inhibition of PRRSV infection of PAMs (qRT-PCR, viral RNA)", "setting": "PRRSV strain VR-2332; 0, 5, 10, 15, 20 μM, 4 h pre-treatment, 1 h inoculation MOI=0.1, 24 h after inoculation", "result": "dose-dependent inhibition; also recorded: inhibits PRRSV infection of porcine alveolar macrophages (PAMs)"},
      {"measurement": "inhibitory effect on PRRSV infection (qRT-PCR), pre-treatment alone", "setting": "PRRSV strain VR-2332; 15 μM, 4 h pre-treatment only, no post-treatment, VR-2332", "result": "minimal impact"},
      {"measurement": "log reduction of viral titer for the type I strain (Lelystad)", "setting": "type I strain (Lelystad)", "result": 2.2, "unit": "log"},
      {"measurement": "viral RNA detected in infected PAMs (qRT-PCR), all PRRSV strains", "setting": "[1]", "result": "significantly decreased the viral RNA; also recorded: significantly inhibited the infection"},
      {"measurement": "Lipemia Index", "setting": "Rat acute toxicity study; rat, IM 4 mg/kg, Day 7 blood", "result": "Normal"},
      {"measurement": "ALB/GLOB ratio", "setting": "Rat acute toxicity study; [3]", "result": 1.2},
      {"measurement": "ALP", "setting": "Rat acute toxicity study; [3]", "result": 277.5, "unit": "U/L"},
      {"measurement": "ALT", "setting": "Rat acute toxicity study; [3]", "result": 95.5, "unit": "U/L"},
      {"measurement": "AST", "setting": "Rat acute toxicity study; [3]", "result": "210.3 U/L and 210.25 U/L"},
      {"measurement": "Albumin", "setting": "Rat acute toxicity study; [3]", "result": 3.5, "unit": "g/dL"},
      {"measurement": "BUN", "setting": "Rat acute toxicity study; [3]", "result": 16.8, "unit": "mg/dL"},
      {"measurement": "BUN/Creatinine Ratio", "setting": "Rat acute toxicity study; [3]", "result": 76.7},
      {"measurement": "Basophil", "setting": "Rat acute toxicity study; [3]", "result": 13.5, "unit": "µL⁻¹"},
      {"measurement": "Basophils (%)", "setting": "Rat acute toxicity study; [3]", "result": 0.3, "unit": "%"},
      {"measurement": "Bicarbonate TCO2", "setting": "Rat acute toxicity study; [3]", "result": 32.8, "unit": "mmol/L"},
      {"measurement": "Bilirubin - Conjugated", "setting": "Rat acute toxicity study; [3]", "result": 0.0, "unit": "mg/dL"},
      {"measurement": "Bilirubin - Unconjugated", "setting": "Rat acute toxicity study; [3]", "result": 0.1, "unit": "mg/dL"},
      {"measurement": "Calcium", "setting": "Rat acute toxicity study; [3]", "result": 11.8, "unit": "mg/dL"},
      {"measurement": "Chloride", "setting": "Rat acute toxicity study; [3]", "result": 97.0, "unit": "mmol/L"},
      {"measurement": "Cholesterol", "setting": "Rat acute toxicity study; [3]", "result": 76.0, "unit": "mg/dL"},
      {"measurement": "Creatine kinase", "setting": "Rat acute toxicity study; [3]", "result": 585.5, "unit": "U/L"},
      {"measurement": "Creatinine", "setting": "Rat acute toxicity study; [3]", "result": 0.2, "unit": "mg/dL"},
      {"measurement": "Eosinophil", "setting": "Rat acute toxicity study; [3]", "result": 19.0, "unit": "µL⁻¹"},
      {"measurement": "Eosinophils (%)", "setting": "Rat acute toxicity study; [3]", "result": 0.5, "unit": "%"},
      {"measurement": "Globulin", "setting": "Rat acute toxicity study; [3]", "result": 2.9, "unit": "g/dL"},
      {"measurement": "Glucose", "setting": "Rat acute toxicity study; [3]", "result": 175.5, "unit": "mg/dL"},
      {"measurement": "HCT", "setting": "Rat acute toxicity study; [3]", "result": "50.1% and 50.075%"},
      {"measurement": "HGB", "setting": "Rat acute toxicity study; [3]", "result": "14.4 g/dL and 14.35 g/dL"},
      {"measurement": "Lymphocyte", "setting": "Rat acute toxicity study; [3]", "result": 3188.0, "unit": "µL⁻¹"},
      {"measurement": "Lymphocytes (%)", "setting": "Rat acute toxicity study; [3]", "result": "83.1% and 83.125%"},
      {"measurement": "MCH", "setting": "Rat acute toxicity study; [3]", "result": 18.9, "unit": "pg"},
      {"measurement": "MCHC", "setting": "Rat acute toxicity study; [3]", "result": 28.7, "unit": "g/dL"},
      {"measurement": "MCV", "setting": "Rat acute toxicity study; [3]", "result": 65.8, "unit": "fL"},
      {"measurement": "Monocyte", "setting": "Rat acute toxicity study; [3]", "result": 179.5, "unit": "µL⁻¹"},
      {"measurement": "Monocytes (%)", "setting": "Rat acute toxicity study; [3]", "result": 4.8, "unit": "%"},
      {"measurement": "NA/K Ratio", "setting": "Rat acute toxicity study; [3]", "result": 22.3},
      {"measurement": "Neutrophil", "setting": "Rat acute toxicity study; [3]", "result": 425.0, "unit": "µL⁻¹"},
      {"measurement": "Neutrophil (%)", "setting": "Rat acute toxicity study; [3]", "result": "11.4% and 11.35%"},
      {"measurement": "Phosphorus", "setting": "Rat acute toxicity study; [3]", "result": 13.0, "unit": "mg/dL"},
      {"measurement": "Potassium", "setting": "Rat acute toxicity study; [3]", "result": 6.7, "unit": "mmol/L"},
      {"measurement": "RBC", "setting": "Rat acute toxicity study; [3]", "result": 7.6, "unit": "M/μL L"},
      {"measurement": "Sodium", "setting": "Rat acute toxicity study; [3]", "result": 145.8, "unit": "mmol/L"},
      {"measurement": "Total Bilirubin", "setting": "Rat acute toxicity study; [3]", "result": 0.1, "unit": "mg/dL"},
      {"measurement": "Total Protein", "setting": "Rat acute toxicity study; [3]", "result": 6.4, "unit": "g/dL"},
      {"measurement": "WBC", "setting": "Rat acute toxicity study; [3]", "result": 3.8, "unit": "K/μL"},
      {"measurement": "blood cell counts, B7-treatment versus control", "setting": "Rat acute toxicity study; single IM 4 mg/kg, Day 7", "result": "no obvious change for blood cell counts"},
      {"measurement": "blood chemistry analysis, B7 versus control", "setting": "Rat acute toxicity study; single IM 4 mg/kg, Day 7", "result": "only ALP and AST were changed slightly with statistical significances"},
      {"measurement": "gross pathology, kidney", "setting": "Rat acute toxicity study; single IM 4 mg/kg, Day 7 necropsy, T4 = B7 rat", "result": "cortical surface of kidney had multiple, mild tan discolorations"},
      {"measurement": "gross pathology, liver", "setting": "Rat acute toxicity study; single IM 4 mg/kg, Day 7 necropsy, T = B7 rats, C = control rats", "result": "multifocal to coalescing mild pale tan discoloration on the surface of liver of C2, T3 and T4"},
      {"measurement": "daily weight gain and body temperature", "setting": "Rat acute toxicity study; single IM 4 mg/kg, Days 1-7", "result": "normal daily weigh gain and body temperature"},
      {"measurement": "signs of abnormality during the 7-day study", "setting": "Rat acute toxicity study; single IM 4 mg/kg, n=4", "result": "No signs of abnormality were observed"},
      {"measurement": "log reduction of viral titers across the 3 Type II PRRSV strains", "setting": "[2]", "result": "2.8-3.1 log"}
    ]}
  ]
}
